Experimental data from the supplement of paper PMC10307832.

Key:
Experiment in all cases: relative viability (nuclei count vs DMSO), 5 days (fraction); higher = more cells survive
NCI-H522 = test system: NCI-H522
How it was run: (§1)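 Medians of duplicate plates are given as relative viability. That measure is the nuclei count in treated wells divided by the count in vehicle wells. Counts were taken on 4× images of lung cancer cell lines in 1536-well plates, 5 days after pin-tool dosing the day after seeding with one drug alone or a fixed anchor-drug dose plus five library-drug doses (not always all listed) in √10 steps.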

BEN = test system: BEN
How it was run: as §1

HCC-15 = test system: HCC-15
How it was run: as §1

201T = test system: 201T
How it was run: as §1

NCI-H1651 = test system: NCI-H1651
How it was run: as §1

NCI-H838 = test system: NCI-H838
How it was run: as §1

NCI-H322M = test system: NCI-H322M
How it was run: as §1

PC-3 [JPC-3] = test system: PC-3 [JPC-3]
How it was run: as §1

EMC-BAC-2 = test system: EMC-BAC-2
How it was run: as §1

LK-2 = test system: LK-2
How it was run: as §1

NCI-H358 = test system: NCI-H358
How it was run: as §1

NCI-H520 = test system: NCI-H520
How it was run: as §1

EKVX = test system: EKVX
How it was run: as §1

COR-L 105 = test system: COR-L 105
How it was run: as §1

LU99A = test system: LU99A
How it was run: as §1

ABC-1 = test system: ABC-1
How it was run: as §1

NCI-H460 = test system: NCI-H460
How it was run: as §1

SW 900 = test system: SW 900
How it was run: as §1

NCI-H727 = test system: NCI-H727
How it was run: as §1

HCC-44 = test system: HCC-44
How it was run: as §1

NCI-H2023 = test system: NCI-H2023
How it was run: as §1

CAL-12T = test system: CAL-12T
How it was run: as §1

Cc1csc(=NC2CCCCC2)n1/N=C/c1ccc(O)c(O)c1O [MIM1] + Cc1cc(Nc2cc(N3CCN(C)CC3)nc(Sc3ccc(NC(=O)C4CC4)cc3)n2)n[nH]1 [Tozasertib] (partner 0.1 µM)
relative viability (NCI-H522; first compound 0.2 µM): 0.622
relative viability (NCI-H522; first compound 0.6325 µM): 0.572
relative viability (NCI-H522; first compound 2 µM): 0.484
relative viability (NCI-H522; first compound 6.325 µM): 0.608
relative viability (NCI-H522; first compound 20 µM): 0.452
relative viability (BEN; first compound 0.2 µM): 0.549
relative viability (BEN; first compound 0.6325 µM): 0.438
relative viability (BEN; first compound 2 µM): 0.498
relative viability (BEN; first compound 6.325 µM): 0.482
relative viability (BEN; first compound 20 µM): 0.346
relative viability (HCC-15; first compound 0.2 µM): 0.354
relative viability (HCC-15; first compound 0.6325 µM): 0.35
relative viability (HCC-15; first compound 2 µM): 0.228
relative viability (HCC-15; first compound 6.325 µM): 0.231
relative viability (HCC-15; first compound 20 µM): 0.137
relative viability (201T; first compound 0.2 µM): 0.956
relative viability (201T; first compound 0.6325 µM): 1
relative viability (201T; first compound 2 µM): 0.896
relative viability (201T; first compound 6.325 µM): 0.504
relative viability (201T; first compound 20 µM): 0.377
relative viability (NCI-H1651; first compound 0.2 µM): 0.601
relative viability (NCI-H1651; first compound 0.6325 µM): 0.689
relative viability (NCI-H1651; first compound 2 µM): 0.565
relative viability (NCI-H1651; first compound 6.325 µM): 0.607
relative viability (NCI-H1651; first compound 20 µM): 0.503
relative viability (NCI-H838; first compound 0.2 µM): 0.292
relative viability (NCI-H838; first compound 0.6325 µM): 0.307
relative viability (NCI-H838; first compound 2 µM): 0.249
relative viability (NCI-H838; first compound 6.325 µM): 0.236
relative viability (NCI-H838; first compound 20 µM): 0.236
relative viability (NCI-H322M; first compound 0.2 µM): 0.497
relative viability (NCI-H322M; first compound 0.6325 µM): 0.456
relative viability (NCI-H322M; first compound 2 µM): 0.513
relative viability (NCI-H322M; first compound 6.325 µM): 0.447
relative viability (NCI-H322M; first compound 20 µM): 0.26
relative viability (PC-3 [JPC-3]; first compound 0.2 µM): 0.912
relative viability (PC-3 [JPC-3]; first compound 0.6325 µM): 0.86
relative viability (PC-3 [JPC-3]; first compound 2 µM): 0.849
relative viability (PC-3 [JPC-3]; first compound 6.325 µM): 0.694
relative viability (PC-3 [JPC-3]; first compound 20 µM): 0.574
relative viability (EMC-BAC-2; first compound 0.2 µM): 0.219
relative viability (EMC-BAC-2; first compound 0.6325 µM): 0.3
relative viability (EMC-BAC-2; first compound 2 µM): 0.273
relative viability (EMC-BAC-2; first compound 6.325 µM): 0.272
relative viability (EMC-BAC-2; first compound 20 µM): 0.202
relative viability (LK-2; first compound 0.2 µM): 0.186
relative viability (LK-2; first compound 2 µM): 0.161
relative viability (LK-2; first compound 6.325 µM): 0.166
relative viability (LK-2; first compound 20 µM): 0.142
relative viability (NCI-H358; first compound 0.2 µM): 0.106
relative viability (NCI-H358; first compound 0.6325 µM): 0.0936
relative viability (NCI-H358; first compound 2 µM): 0.129
relative viability (NCI-H358; first compound 6.325 µM): 0.0878
relative viability (NCI-H358; first compound 20 µM): 0.0838
relative viability (NCI-H520; first compound 0.2 µM): 0.55
relative viability (NCI-H520; first compound 0.6325 µM): 0.419
relative viability (NCI-H520; first compound 2 µM): 0.463
relative viability (NCI-H520; first compound 6.325 µM): 0.428
relative viability (NCI-H520; first compound 20 µM): 0.375
relative viability (EKVX; first compound 0.2 µM): 0.474
relative viability (EKVX; first compound 0.6325 µM): 0.357
relative viability (EKVX; first compound 2 µM): 0.355
relative viability (EKVX; first compound 6.325 µM): 0.28
relative viability (EKVX; first compound 20 µM): 0.337
relative viability (COR-L 105; first compound 0.2 µM): 0.573
relative viability (COR-L 105; first compound 0.6325 µM): 0.35
relative viability (COR-L 105; first compound 2 µM): 0.341
relative viability (COR-L 105; first compound 6.325 µM): 0.354
relative viability (COR-L 105; first compound 20 µM): 0.338
relative viability (LU99A; first compound 0.2 µM): 0.286
relative viability (LU99A; first compound 0.6325 µM): 0.274
relative viability (LU99A; first compound 2 µM): 0.288
relative viability (LU99A; first compound 6.325 µM): 0.219
relative viability (LU99A; first compound 20 µM): 0.177
relative viability (ABC-1; first compound 0.2 µM): 0.228
relative viability (ABC-1; first compound 0.6325 µM): 0.182
relative viability (ABC-1; first compound 2 µM): 0.21
relative viability (ABC-1; first compound 6.325 µM): 0.206
relative viability (ABC-1; first compound 20 µM): 0.194
relative viability (NCI-H460; first compound 0.2 µM): 0.447
relative viability (NCI-H460; first compound 0.6325 µM): 0.499
relative viability (NCI-H460; first compound 2 µM): 0.149
relative viability (NCI-H460; first compound 20 µM): 0.0359
relative viability (SW 900; first compound 0.2 µM): 0.657
relative viability (SW 900; first compound 0.6325 µM): 0.722
relative viability (SW 900; first compound 2 µM): 0.495
relative viability (SW 900; first compound 6.325 µM): 0.528
relative viability (SW 900; first compound 20 µM): 0.183
relative viability (NCI-H727; first compound 0.2 µM): 0.513
relative viability (NCI-H727; first compound 0.6325 µM): 0.536
relative viability (NCI-H727; first compound 2 µM): 0.592
relative viability (NCI-H727; first compound 6.325 µM): 0.574
relative viability (NCI-H727; first compound 20 µM): 0.506
relative viability (HCC-44; first compound 0.2 µM): 0.962
relative viability (HCC-44; first compound 0.6325 µM): 1.1
relative viability (HCC-44; first compound 2 µM): 0.387
relative viability (HCC-44; first compound 6.325 µM): 0.584
relative viability (HCC-44; first compound 20 µM): 0.184
relative viability (NCI-H2023; first compound 0.2 µM): 0.32
relative viability (NCI-H2023; first compound 0.6325 µM): 0.345
relative viability (NCI-H2023; first compound 2 µM): 0.3
relative viability (NCI-H2023; first compound 6.325 µM): 0.237
relative viability (NCI-H2023; first compound 20 µM): 0.109
relative viability (CAL-12T; first compound 0.2 µM): 0.244
relative viability (CAL-12T; first compound 0.6325 µM): 0.254
relative viability (CAL-12T; first compound 2 µM): 0.303
relative viability (CAL-12T; first compound 6.325 µM): 0.206
relative viability (CAL-12T; first compound 20 µM): 0.204
